Read-outs that look alike come from different tables or passages of the source.
What was measured:
[1] = molecular target: T1, human 5-HT1A receptor (Homo sapiens, UniProt P08908); experiment: cAMP measurements, antagonist mode: block of 8-OH-DPAT-induced inhibition of forskolin-stimulated cAMP; format: cell-based
T1 construct: expressed in transfected cells
T1 sequence (P08908 1-422): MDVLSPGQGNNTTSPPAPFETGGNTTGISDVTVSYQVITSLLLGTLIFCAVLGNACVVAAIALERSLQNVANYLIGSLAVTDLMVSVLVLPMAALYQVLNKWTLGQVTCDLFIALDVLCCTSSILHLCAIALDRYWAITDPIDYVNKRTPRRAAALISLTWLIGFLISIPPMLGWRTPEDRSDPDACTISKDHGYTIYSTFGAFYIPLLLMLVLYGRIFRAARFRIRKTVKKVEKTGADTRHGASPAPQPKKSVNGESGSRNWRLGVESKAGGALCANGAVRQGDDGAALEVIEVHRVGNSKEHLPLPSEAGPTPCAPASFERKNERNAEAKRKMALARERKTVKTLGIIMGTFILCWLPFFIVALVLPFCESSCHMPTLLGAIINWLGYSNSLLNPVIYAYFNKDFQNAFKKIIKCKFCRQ
Procedure: The PCR cloning of the human 5-HT1A receptor subtype from a human genomic library has been described previously (Chanda et al., Mol. Pharmacol., 43:516 (1993)). A stable Chinese hamster ovary cell line expressing the human 5-HT1A receptor subtype (5-HT1A.CHO cells) was employed throughout this study. Cells were maintained in DMEM supplemented with 10% fetal calf serum, non-essential amino acids and penicillin/streptomycin. Measurements were performed as described in Dunlop, J. et al., supra. Assays were performed by incubating the cells with DMEM containing 25 mM HEPES, 5 mM theophylline and 10 μM pargyline for a period of 20 minutes at 37° C. […] The reaction was terminated by removal of the media and addition of 0.5 ml ice cold assay buffer. Plates were stored at −20° C. prior to assessment of cAMP formation by a cAMP SPA assay (Amersham). Compounds of the invention were tested according to the protocol described. […] Compounds having 5-HT1A antagonist activity show no effect on forskolin-induced increases in cAMP levels on their own, but block the 8-OH-DPAT-induced inhibition of forskolin-stimulated increases in cAMP levels. Results are required as IC50 values (Table 1, “Antagonist Activity IC50”)

[2] = molecular target: T1, human 5-HT1A receptor; experiment: Radioligand binding with [3H]8-OH-DPAT on membranes of 5-HT1A.CHO cells
Procedure: The PCR cloning of the human 5-HT1A receptor subtype from a human genomic library has been described previously (Chanda et al., Mol. Pharmacol., 43:516 (1993)). A stable Chinese hamster ovary cell line expressing the human 5-HT1A receptor subtype (5-HT1A.CHO cells) was employed throughout this study. Cells were maintained in DMEM supplemented with 10% fetal calf serum, non-essential amino acids and penicillin/streptomycin. Radioligand binding assays were performed as described in Dunlop, J. et al., J. Pharmacol. and Toxicol. Methods 40: 47-55 (1998), which is incorporated by reference. Cells were grown to 95-100% confluency as a monolayer before membranes were harvested for binding studies. Cells were gently scraped from the culture plates, transferred to centrifuge tubes, and washed twice by centrifugation (2000 rpm for 10 min., 4° C.) in buffer (50 mM Tris; pH 7.5). The resulting pellets were aliquoted and placed at −80° C. On the day of assay, the cells were thawed on ice, and resuspended in buffer. Studies were conducted using [^3H]8-OH-DPAT as the radioligand. The binding assay was performed in 96 well microtiter plates in a final total volume of 250 μL of buffer. Competition experiments were performed by using seven different concentrations of unlabelled drug and a final ligand concentration of 1.5 nM. Non-specific binding was determined in the presence of 10 μM 5HT. Saturation analysis was conducted by using [^3H]8-OH-DPAT at concentrations ranging from 0.3-30 nM. Following a 30 minute incubation at room temperature, the reaction was terminated by the addition of ice cold buffer and rapid filtration using a M-96 Brandel Cell Harvester (Gaithersburg, Md.) through a GF/B filter presoaked for 30 minutes in 0.5% polyethyleneimine. Table 1 provides Ki values for the tested compounds.

[3] = molecular target: T1, human 5-HT1A receptor; experiment: cAMP measurements, agonist mode: inhibition of forskolin-induced increase in cAMP; format: cell-based; conditions: forskolin 1 uM, 5-HT1A.CHO cells
Procedure: The PCR cloning of the human 5-HT1A receptor subtype from a human genomic library has been described previously (Chanda et al., Mol. Pharmacol., 43:516 (1993)). A stable Chinese hamster ovary cell line expressing the human 5-HT1A receptor subtype (5-HT1A.CHO cells) was employed throughout this study. Cells were maintained in DMEM supplemented with 10% fetal calf serum, non-essential amino acids and penicillin/streptomycin.
Measurements were performed as described in Dunlop, J. et al., supra. Assays were performed by incubating the cells with DMEM containing 25 mM HEPES, 5 mM theophylline and 10 μM pargyline for a period of 20 minutes at 37° C. Functional activity was assessed by treating the cells with forskolin (1 uM final concentration) followed immediately by test compound (6 different concentrations) for an additional 10 minutes at 37° C. In separate experiments, 6 concentrations of antagonist were preincubated for 20 min prior to the addition of 10 nM 8-OH-DPAT and forskolin. The reaction was terminated by removal of the media and addition of 0.5 ml ice cold assay buffer. Plates were stored at −20° C. prior to assessment of cAMP formation by a cAMP SPA assay (Amersham). […]

[4] = 10 nM 8-OH-DPAT and forskolin, 5-HT1A.CHO cells, read-out: Antagonist Activity IC50
[5] = [3H]8-OH-DPAT 1.5 nM, 5-HT1A.CHO cell membranes, read-out: 5-HT1A Affinity Ki

| Structure (SMILES) | IC50 [1, 4] | Ki [2, 5] | EC50 [3] | IC50 [1] | Ki [2] |
| --- | --- | --- | --- | --- | --- |
| c1cnc2c(N3CCC(N4CCN(c5cccc6[nH]ccc56)CC4)CC3)cccc2c1 [D, 8-{4-[4-(1H-indole-4-yl)-1-piperazinyl]-1-piperidinyl}quinoline] | – | 0.59 nM | – | 24 nM | – |
| c1cc2c(c(N3CCN(C4CCN(c5cccc6cccnc56)CC4)CC3)c1)OCCO2 [E, 8-{4-[4-(2,3-dihydro-1,4-benzo[1,4]dioxane-5-yl)-1-piperazinyl]-1-piperidinyl}quinoline] | – | 0.38 nM | 2.4 nM | – | – |
| Clc1cc(N2CCC(N3CCN(c4cc(Cl)cc5cccnc45)CC3)CC2)c2ncccc2c1 [Example 4, 6-chloro-8-{4-[4-(6-chloro-8-quinolinyl)-1-piperazinyl]-1-piperidinyl}quinoline] | – | 500 nM | – | – | – |
| Fc1cc(N2CCN(C3CCN(c4cc(Cl)cc5cccnc45)CC3)CC2)c2ncccc2c1 [Example 5, 8-{4-[1-(6-chloro-8-quinolinyl)-4-piperidinyl]-1-piperazinyl}-6-fluoroquinoline] | – | 106 nM | – | – | – |
| Cc1ccc2cccc(N3CCN(C4CCN(c5cccc6cccnc56)CC4)CC3)c2n1 [Example 10, 2-methyl-8-{4-[1-(8-quinolinyl)-4-piperidinyl]-1-piperazinyl}quinoline] | – | 0.83 nM | 3.28 nM | – | – |
| Clc1cc(N2CCC(N3CCN(c4coc5ccccc45)CC3)CC2)c2ncccc2c1 [Example 16, 8-{4-[4-(1-Benzofuran-3-yl)-1-piperazinyl]-1-piperidinyl}-6-chloroquinoline] | 1080 nM | 148 nM | – | – | – |
| Fc1ccc2occ(N3CCN(C4CCN(c5ccc(F)c6cccnc56)CC4)CC3)c2c1 [F, 5-fluoro-8-{4-[4-(5-fluoro-1-benzofuran-3-yl)-1-piperazinyl]-1-piperidinyl}quinoline] | 10.8 nM | 1.69 nM | – | – | – |
| COc1ccccc1N1CCN(C2CCN(c3csc4ccccc34)CC2)CC1 [G, 1-[1-(1-benzothien-3-yl)-4-piperidinyl]-4-(2-methoxyphenyl)piperazine] | – | 26.7 nM | 22 nM | – | – |
| COc1ccccc1N1CCN(C2CCN(c3noc4ccccc34)CC2)CC1 [H, 3-{4-[4-(2-methoxyphenyl)-1-piperazinyl]-1-piperidinyl}-1,2-benzisoxazole] | – | 1.45 nM | 2.53 nM | – | – |
| Clc1cc(N2CCC(N3CCN(c4cccc5[nH]ccc45)CC3)CC2)c2ncccc2c1 [I, 6-Chloro-8-{4-[4-(1H-indole-4-yl)-1-piperazinyl]-1-piperidinyl}quinoline] | – | – | – | – | 40.8 nM |
| COc1cc(N2CCN(C3CCN(c4c(F)ccc5cccnc45)CC3)CC2)c2ncccc2c1 [J, 8-{4-[1-(7-Fluoroquinolin-8-yl)piperidin-4-yl]piperazin-1-yl}-6-methoxyquinoline] | 9.95 nM | 0.61 nM | – | – | – |
| Fc1cc(N2CCN(C3CCN(c4ccc5cccnc5c4F)CC3)CC2)c2ncccc2c1 [K, 6-Fluoro-8-{4-[1-(8-fluoroquinolin-7-yl)piperidin-4-yl]piperazin-1-yl}quinoline] | – | 0.27 nM | 0.83 nM | – | – |
| COc1cc(N2CCN(C3CCN(c4cccc5cc(C(F)(F)F)cnc45)CC3)CC2)c2ncccc2c1 [L, 8-{4-[4-(6-Methoxyquinolin-8-yl)piperazin-1-yl]piperidin-1-yl}-3-(trifluoromethyl)quinoline] | – | 1.2 nM | 29.5 nM | – | – |
| COc1cc(N2CCN(C3CCN(Cc4cccc5cccnc45)CC3)CC2)c2ncccc2c1 [M, 6-Methoxy-8-{4-[1-(quinolin-8-ylmethyl)piperidin-4-yl]piperazin-1-yl}quinoline] | 176 nM | 75.7 nM | – | – | – |
| COc1cc(N2CCN(C3CCN(c4ccc(F)c5c(OC)cc(C(F)(F)F)nc45)CC3)CC2)c2ncccc2c1 [N, 5-fluoro-4-methoxy-8-(4-(4-(6-methoxyquinolin-8-yl)piperazin-1-yl)piperidin-1-yl)-2-(trifluoromethyl)quinoline] | – | – | – | 9.2 nM | 2.02 nM |
| COc1cc(N2CCN(C3CCN(c4ccc(F)c5cccnc45)CC3)CC2)c2ncccc2c1 [P, 5-Fluoro-8-(4-(4-(6-methoxyquinolin-8-yl)piperazin-1-yl)piperidin-1-yl)-quinoline] | 3.7 nM | – | – | – | – |

Now from value to molecule, other results behind:

| IC50 [1, 4] | Ki [2, 5] | EC50 [3] | Structure (SMILES) | IC50 [1] | Ki [2] |
| --- | --- | --- | --- | --- | --- |
| 3.86 nM | 0.4 nM | – | COc1cc(N2CCN(C3CCN(c4cccc5cccnc45)CC3)CC2)c2ncccc2c1 [A, 6-Methoxy-8-{4-[1-(8-quinolinyl)-4-piperidinyl]-1-piperazinyl}quinoline] | – | – |
| 25 nM | 0.46 nM | – | Fc1cc(N2CCN(C3CCN(c4cccc5cccnc45)CC3)CC2)c2ncccc2c1 [B, 6-fluoro-8-{4-[1-(8-quinolinyl)-4-piperidinyl]-1-piperazinyl}quinoline] | – | – |
| – | 0.24 nM | 6.85 nM | Fc1ccc(N2CCC(N3CCN(c4cccc5cccnc45)CC3)CC2)c2ncccc12 [C, 5-fluoro-8-{4-[4-(8-quinolinyl)-1-piperazinyl]-1-piperidinyl}-quinoline] | – | – |
| – | 0.4 nM | 10 nM | c1cnc2c(N3CCC(N4CCN(c5cccc6cccnc56)CC4)CC3)cccc2c1 [Example 3, 8-{4-[1-(8-quinolinyl)-4-piperidinyl]-1-piperazinyl}quinoline] | – | – |
| – | 0.31 nM | 20 nM | Clc1ccc(N2CCN(C3CCN(c4cccc5cccnc45)CC3)CC2)c2ncccc12 [Example 8, 5-chloro-8-{4-[1-(8-quinolinyl)-4-piperidinyl]-1-piperazinyl}quinoline] | – | – |
| – | 0.48 nM | 3.84 nM | Clc1cc(N2CCN(C3CCN(c4cccc5cccnc45)CC3)CC2)c2ncccc2c1 [Example 11, 6-chloro-8-{4-[1-(8-quinolinyl)-4-piperidinyl]-1-piperazinyl}quinoline] | – | – |
| 35.5 nM | 3.04 nM | – | FC(F)(F)c1ccc(N2CCN(C3CCN(c4cccc5cccnc45)CC3)CC2)c2ncccc12 [Example 12, 8-{4-[1-(8-quinolinyl)-4-piperidinyl]-1-piperazinyl}-5-(trifluoromethyl)quinoline] | – | – |
| 64.5 nM | 1.45 nM | – | COc1ccc(N2CCN(C3CCN(c4cccc5cccnc45)CC3)CC2)c2ncccc12 [Example 14, 5-Methoxy-8-{4-[1-(8-quinolinyl)-4-piperidinyl]-1-piperazinyl}-quinoline] | – | – |
| 23.5 nM | 0.15 nM | – | Fc1ccc(N2CCN(C3CCN(c4cccc5cccnc45)CC3)CC2)c2ncccc12 [Example 15] | – | – |

From US7671056B2, “Piperazine-piperidine antagonists and agonists of the 5-HT1A receptor” (Wyeth LLC, priority 2005, dated 2010)
